ChEMBL document CHEMBL4680137, “Synthesis and biological evaluation of some novel 1,2,3-triazole hybrids of myrrhanone B isolated from Commiphora mukul gum resin: Identification of potent antiproliferative leads active against prostate cancer cells (PC-3)” (Eur J Med Chem, 2020)

Experiments:
L132 = assay: Cytotoxicity against human L132 cells assessed as reduction in cell viability after 48 hrs by MTT assay; type: cell-based; details: L132, 48 h
DU-145 = assay: Antiproliferative activity against human DU-145 cells assessed as reduction in cell viability after 48 hrs by MTT assay; type: functional, cell-based; details: DU-145, 48 h
A549 = assay: Antiproliferative activity against human A549 cells assessed as reduction in cell viability after 48 hrs by MTT assay; type: functional, cell-based; details: A549, 48 h
[1] = Inhibition of Saccharomyces cerevisiae alpha-glucosidase using p-nitophenyl alpha […]D-glucoside incubated for 45 mins
MDA-MB-231 = assay: Antiproliferative activity against human MDA-MB-231 cells assessed as reduction in cell viability after 48 hrs by MTT assay; type: functional, cell-based; details: MDA-MB-231, 48 h
U-87 MG = assay: Antiproliferative activity against human U87 cells assessed as reduction in cell viability after 48 hrs by MTT assay; type: functional, cell-based, U-87MG ATCC

Q: With `C/C(=C\CC/C(C)=C/CC[C@@H]1[C@@]2(C)CCC(=O)C(C)(C)[C@H]2CC[C@@]1(C)O)CC/C=C(\C)C(=O)OCc1cn(-c2ccc(C)cc2)nn1` as the compound, how does the IC50 (L132) read?
A: The IC50 was greater than 150 µM.

Q: What about the IC50 (DU-145) of the same compound?
A: The IC50 was greater than 150 µM.

Q: What about the IC50 (A549) of the same compound?
A: The IC50 was greater than 150 µM.

Q: What does the source list for `C/C(=C\CC/C(C)=C/CC[C@@H]1[C@@]2(C)CCC(=O)C(C)(C)[C@H]2CC[C@@]1(C)O)CC/C=C(\C)C(=O)OCc1cn(-c2cccc(C(F)(F)F)c2)nn1`?
A: IC50 [1]: 13.4 µM; IC50 (MDA-MB-231): > 150 µM; IC50 (DU-145): > 150 µM; IC50 (A549): > 150 µM

Q: With `C/C(=C\CC/C(C)=C/CC[C@@H]1[C@@]2(C)CCC(=O)C(C)(C)[C@H]2CC[C@@]1(C)O)CC/C=C(\C)C(=O)OCc1cn(-c2ccc(Br)cc2)nn1` as the compound, how does the IC50 [1] read?
A: Its IC50 is 11.3 µM.

Q: What about the IC50 (L132) of the same compound?
A: The IC50 was greater than 150 µM.

Q: And the IC50 (DU-145)?
A: Its IC50 is greater than 150 µM.

Q: What about the IC50 (U-87 MG) of the same compound?
A: The IC50 was greater than 150 µM.

Q: What about the IC50 (A549) of the same compound?
A: The IC50 was greater than 150 µM.

Q: What does the source list for `C/C(=C\CC/C(C)=C/CC[C@@H]1[C@@]2(C)CCC(=O)C(C)(C)[C@H]2CC[C@@]1(C)O)CC/C=C(\C)C(=O)OCc1cn(-c2ccccc2C(F)(F)F)nn1`?
A: IC50 [1]: 14.5 µM; IC50 (MDA-MB-231): > 150 µM; IC50 (L132): > 150 µM; IC50 (DU-145): > 150 µM; IC50 (A549): > 150 µM

Q: With `C[C@H]1O[C@H](O[C@H]2[C@H](O)[C@@H](O)[C@@H](O[C@H]3[C@H](O)[C@@H](O)C(O)O[C@@H]3CO)O[C@@H]2CO)[C@H](O)[C@@H](O)[C@@H]1N[C@H]1C=C(CO)[C@@H](O)[C@H](O)[C@H]1O` (some centres not stated) [ACARBOSE] as the compound, how does the IC50 [1] read?
A: The IC50 was 2120 µM.

Q: With `C/C(=C\CC/C(C)=C/CC[C@@H]1[C@@]2(C)CCC(=O)C(C)(C)[C@H]2CC[C@@]1(C)O)CC/C=C(\C)C(=O)OCc1cn(-c2cccc(Br)c2)nn1` as the compound, how does the IC50 (L132) read?
A: The IC50 was greater than 150 µM.

Q: What about the IC50 (DU-145) of the same compound?
A: Its IC50 is greater than 150 µM.

Q: And the IC50 (A549)?
A: Its IC50 is greater than 150 µM.

Q: For `C/C(=C\CC/C(C)=C/CC[C@@H]1[C@@]2(C)CCC(=O)C(C)(C)[C@H]2CC[C@@]1(C)O)CC/C=C(\C)C(=O)OCc1cn(-c2ccc(C(F)(F)F)cc2)nn1`, which IC50 (MDA-MB-231) is on record?
A: The IC50 was greater than 150 µM.

Q: And the IC50 (L132)?
A: The IC50 was greater than 150 µM.

Q: And the IC50 (A549)?
A: Its IC50 is greater than 150 µM.

Q: With `C/C(=C\CC/C(C)=C/CC[C@@H]1[C@@]2(C)CCC(=O)C(C)(C)[C@H]2CC[C@@]1(C)O)CC/C=C(\C)C(=O)OCc1cn(-c2ccccc2Br)nn1` as the compound, how does the IC50 (MDA-MB-231) read?
A: The IC50 was greater than 150 µM.

Q: And the IC50 (L132)?
A: The IC50 was greater than 150 µM.

Q: What about the IC50 (DU-145) of the same compound?
A: The IC50 was greater than 150 µM.

Q: What about the IC50 (A549) of the same compound?
A: Its IC50 is greater than 150 µM.

Q: For `C/C(=C\CC/C(C)=C/CC[C@@H]1[C@@]2(C)CCC(=O)C(C)(C)[C@H]2CC[C@@]1(C)O)CC/C=C(\C)C(=O)OCc1cn(-c2ccc(F)cc2)nn1`, which IC50 (L132) is on record?
A: The IC50 was greater than 150 µM.

Q: What about the IC50 (DU-145) of the same compound?
A: The IC50 was greater than 150 µM.

Q: What about the IC50 (U-87 MG) of the same compound?
A: The IC50 was greater than 150 µM.

Q: And the IC50 (A549)?
A: Its IC50 is greater than 150 µM.

Q: Which IC50 (MDA-MB-231) does the source give for `C/C(=C\CC/C(C)=C/CC[C@@H]1[C@@]2(C)CCC(=O)C(C)(C)[C@H]2CC[C@@]1(C)O)CC/C=C(\C)C(=O)OCc1cn(-c2ccccc2C)nn1` here?
A: The IC50 was greater than 150 µM.

Q: What about the IC50 (L132) of the same compound?
A: Its IC50 is greater than 150 µM.

Q: And the IC50 (DU-145)?
A: Its IC50 is greater than 150 µM.

Q: And the IC50 (A549)?
A: Its IC50 is greater than 150 µM.

Q: Which results are given for `COc1cccc(-n2cc(COC(=O)/C(C)=C/CC/C(C)=C/CC/C(C)=C/CC[C@@H]3[C@@]4(C)CCC(=O)C(C)(C)[C@H]4CC[C@@]3(C)O)nn2)c1`?
A: IC50 [1]: 17.6 µM; IC50 (DU-145): > 150 µM; IC50 (A549): > 150 µM

Q: Which IC50 (MDA-MB-231) does the source give for `C/C(=C\CC/C(C)=C/CC[C@@H]1[C@@]2(C)CCC(=O)C(C)(C)[C@H]2CC[C@@]1(C)O)CC/C=C(\C)C(=O)OCc1cn(-c2ccccc2F)nn1` here?
A: The IC50 was greater than 150 µM.

Q: What about the IC50 (L132) of the same compound?
A: Its IC50 is greater than 150 µM.

Q: What about the IC50 (DU-145) of the same compound?
A: Its IC50 is greater than 150 µM.

Q: And the IC50 (A549)?
A: Its IC50 is greater than 150 µM.

Q: Which IC50 (MDA-MB-231) does the source give for `COc1ccc(-n2cc(COC(=O)/C(C)=C/CC/C(C)=C/CC/C(C)=C/CC[C@@H]3[C@@]4(C)CCC(=O)C(C)(C)[C@H]4CC[C@@]3(C)O)nn2)cc1` here?
A: The IC50 was greater than 150 µM.

Q: What about the IC50 (L132) of the same compound?
A: Its IC50 is greater than 150 µM.

Q: And the IC50 (DU-145)?
A: The IC50 was 135 µM.

Q: And the IC50 (A549)?
A: The IC50 was greater than 150 µM.

Q: Which IC50 [1] does the source give for `C/C(=C\CC/C(C)=C/CC[C@@H]1[C@@]2(C)CCC(=O)C(C)(C)[C@H]2CC[C@@]1(C)O)CC/C=C(\C)C(=O)OCc1cn(-c2ccc(C(C)(C)C)cc2)nn1` here?
A: The IC50 was 12.6 µM.

Q: What about the IC50 (L132) of the same compound?
A: Its IC50 is 65.8 µM.

Q: And the IC50 (DU-145)?
A: Its IC50 is greater than 150 µM.

Q: What about the IC50 (U-87 MG) of the same compound?
A: Its IC50 is greater than 150 µM.

Q: What about the IC50 (A549) of the same compound?
A: The IC50 was greater than 150 µM.
